Biological target: Disintegrin and metalloproteinase domain-containing protein 17 (Homo sapiens, UniProt P78536)
Test: Inhibition of TACE (unknown origin) using fluorogenic LAQAVRSSSR peptide as a substrate by fluorometric assay

Disintegrin and metalloproteinase domain-containing protein 17, sequence (P78536 whole entry, the tested form may be a part): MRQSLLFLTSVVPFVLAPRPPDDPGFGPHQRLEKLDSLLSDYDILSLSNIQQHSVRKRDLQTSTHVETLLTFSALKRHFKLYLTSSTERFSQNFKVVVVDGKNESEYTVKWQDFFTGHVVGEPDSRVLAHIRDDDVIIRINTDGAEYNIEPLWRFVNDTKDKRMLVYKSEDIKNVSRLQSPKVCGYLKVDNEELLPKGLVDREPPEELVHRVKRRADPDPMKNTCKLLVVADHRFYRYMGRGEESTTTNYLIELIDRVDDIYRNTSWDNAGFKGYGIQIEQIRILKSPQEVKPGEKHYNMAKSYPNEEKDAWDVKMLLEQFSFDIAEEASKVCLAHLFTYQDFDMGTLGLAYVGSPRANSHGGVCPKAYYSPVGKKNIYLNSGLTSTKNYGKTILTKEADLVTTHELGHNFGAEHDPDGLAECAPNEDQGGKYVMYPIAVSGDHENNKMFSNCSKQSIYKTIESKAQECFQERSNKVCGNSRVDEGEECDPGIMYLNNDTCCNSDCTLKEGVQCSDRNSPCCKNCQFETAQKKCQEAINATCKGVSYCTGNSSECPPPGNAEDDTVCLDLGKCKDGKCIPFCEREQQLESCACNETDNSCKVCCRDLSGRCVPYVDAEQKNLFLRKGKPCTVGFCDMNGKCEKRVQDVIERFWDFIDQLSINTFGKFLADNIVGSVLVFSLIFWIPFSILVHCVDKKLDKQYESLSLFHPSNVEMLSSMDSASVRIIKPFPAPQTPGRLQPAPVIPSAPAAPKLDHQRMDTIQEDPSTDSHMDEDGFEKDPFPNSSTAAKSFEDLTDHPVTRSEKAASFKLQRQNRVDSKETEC

| Structure (SMILES) | IC50 |
| --- | --- |
| CC#CCOc1ccc(S(=O)(=O)NC(C)C(=O)NO)cc1 (configuration not stated) | 4 nM |
| CNC(=O)[C@H](Cc1cccc2c1CCCC2)NC(=O)[C@H](CC(C)C)[C@H](C)C(=O)NO | 0.3 nM |

— ChEMBL document CHEMBL3045769, “Strategy for generation of new TACE inhibitors: pharmacophore and counter pharmacophore modeling to remove non-selective hits” (Med Chem Res, 2011)
